For 1 compound, remaining binding results are on record in publication PMC6576746, “Rational discovery of dual-indication multi-target PDE/Kinase inhibitor for precision anti-cancer therapy using structural systems pharmacology” (PLoS Computational Biology, 2019).

Assay in all cases: biochemical
Parameters in all cases: DiscoverX KinomeScan competition binding assay across human kinases; per cent of control at 10 and 100 uM

One experiment deals with T1, DLK (Homo sapiens, UniProt Q12852).
T1 construct: gene MAP3K12
Particulars: competition binding, % of control; read-out: Percent Control (100 uM Levosimendan). The procedure, abridged:
(§1)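 KinomeScan competition binding was run across a human kinase panel at 10 μM and 100 μM levosimendan. Results are %control = (test − positive control)/(negative control − positive control) × 100.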

A further experiment addresses PKN2 (Homo sapiens, UniProt Q16513). Conditions: competition binding, % of control. The procedure, abridged:
as §1

Another experiment concerns the target T2, TAK1 (Homo sapiens, UniProt O43318).
T2 construct: gene MAP3K7
Conditions: competition binding, % of control; read-out: Percent Control (100 uM Levosimendan). In outline: as §1

For a further experiment, the target named is PLK4 (Homo sapiens, UniProt O00444). Particulars: competition binding, % of control. In outline: as §1
In another experiment the target is MYO3A (Homo sapiens, UniProt Q8NEV4). Conditions: competition binding, % of control; read-out: Percent Control (100 uM Levosimendan). In outline:
as §1

The next experiment concerns the target ERBB2 (Homo sapiens, UniProt P04626). Conditions: competition binding, % of control; read-out: Percent Control (100 uM Levosimendan). The procedure, abridged: as §1
A further experiment concerns the target PIK3C2B (Homo sapiens, UniProt O00750). Particulars: competition binding, % of control; read-out: Percent Control (100 uM Levosimendan). In outline: as §1
The target in the next experiment is MAK (Homo sapiens, UniProt P20794). Conditions: competition binding, % of control; read-out: Percent Control (100 uM Levosimendan). In outline:
as §1

A further experiment concerns the target PIP5K1A (Homo sapiens, UniProt Q99755). Particulars: competition binding, % of control. In outline: as §1
Another experiment concerns the target CAMK2D (Homo sapiens, UniProt Q13557). Conditions: competition binding, % of control; read-out: Percent Control (100 uM Levosimendan). The procedure, abridged:
as §1

The target of a further experiment is AURKA (Homo sapiens, UniProt O14965). Conditions: competition binding, % of control; read-out: Percent Control (100 uM Levosimendan). The procedure, abridged:
as §1

A further experiment addresses HIPK3 (Homo sapiens, UniProt Q9H422). Conditions: competition binding, % of control; read-out: Percent Control (100 uM Levosimendan). The procedure, abridged:
as §1

For another experiment, the target named is PIK3CA (Homo sapiens, UniProt P42336). Particulars: competition binding, % of control; read-out: Percent Control (100 uM Levosimendan). The procedure, abridged: as §1
The target in the next experiment is GRK4 (Homo sapiens, UniProt P32298). Particulars: competition binding, % of control; read-out: Percent Control (100 uM Levosimendan). The procedure, abridged: as §1
The target of a further experiment is TNNI3K (Homo sapiens, UniProt Q59H18). Conditions: competition binding, % of control; read-out: Percent Control (100 uM Levosimendan). The procedure, abridged: as §1
Another experiment addresses T3, LKB1 (Homo sapiens, UniProt Q15831).
T3 construct: gene STK11
Particulars: competition binding, % of control; read-out: Percent Control (100 uM Levosimendan). The procedure, abridged:
as §1

The target of the next experiment is PHKG2 (Homo sapiens, UniProt P15735). Conditions: competition binding, % of control. The procedure, abridged: as §1
In a further experiment the target is T4, NIM1 (Homo sapiens, UniProt Q8IY84).
T4 construct: gene NIM1K
Particulars: competition binding, % of control; read-out: Percent Control (100 uM Levosimendan). In outline: as §1

Experiment [1] has as its target T5, JAK1(JH2domain-pseudokinase) (Homo sapiens, UniProt P23458).
T5 construct: JH2domain-pseudokinase
Particulars: competition binding, % of control. In outline: as §1

Where [2] appears, read: read-out: Percent Control (10 uM Levosimendan).
[3] abbreviates: read-out: Percent Control (100 uM Levosimendan).

T5 sequence (P23458 whole entry): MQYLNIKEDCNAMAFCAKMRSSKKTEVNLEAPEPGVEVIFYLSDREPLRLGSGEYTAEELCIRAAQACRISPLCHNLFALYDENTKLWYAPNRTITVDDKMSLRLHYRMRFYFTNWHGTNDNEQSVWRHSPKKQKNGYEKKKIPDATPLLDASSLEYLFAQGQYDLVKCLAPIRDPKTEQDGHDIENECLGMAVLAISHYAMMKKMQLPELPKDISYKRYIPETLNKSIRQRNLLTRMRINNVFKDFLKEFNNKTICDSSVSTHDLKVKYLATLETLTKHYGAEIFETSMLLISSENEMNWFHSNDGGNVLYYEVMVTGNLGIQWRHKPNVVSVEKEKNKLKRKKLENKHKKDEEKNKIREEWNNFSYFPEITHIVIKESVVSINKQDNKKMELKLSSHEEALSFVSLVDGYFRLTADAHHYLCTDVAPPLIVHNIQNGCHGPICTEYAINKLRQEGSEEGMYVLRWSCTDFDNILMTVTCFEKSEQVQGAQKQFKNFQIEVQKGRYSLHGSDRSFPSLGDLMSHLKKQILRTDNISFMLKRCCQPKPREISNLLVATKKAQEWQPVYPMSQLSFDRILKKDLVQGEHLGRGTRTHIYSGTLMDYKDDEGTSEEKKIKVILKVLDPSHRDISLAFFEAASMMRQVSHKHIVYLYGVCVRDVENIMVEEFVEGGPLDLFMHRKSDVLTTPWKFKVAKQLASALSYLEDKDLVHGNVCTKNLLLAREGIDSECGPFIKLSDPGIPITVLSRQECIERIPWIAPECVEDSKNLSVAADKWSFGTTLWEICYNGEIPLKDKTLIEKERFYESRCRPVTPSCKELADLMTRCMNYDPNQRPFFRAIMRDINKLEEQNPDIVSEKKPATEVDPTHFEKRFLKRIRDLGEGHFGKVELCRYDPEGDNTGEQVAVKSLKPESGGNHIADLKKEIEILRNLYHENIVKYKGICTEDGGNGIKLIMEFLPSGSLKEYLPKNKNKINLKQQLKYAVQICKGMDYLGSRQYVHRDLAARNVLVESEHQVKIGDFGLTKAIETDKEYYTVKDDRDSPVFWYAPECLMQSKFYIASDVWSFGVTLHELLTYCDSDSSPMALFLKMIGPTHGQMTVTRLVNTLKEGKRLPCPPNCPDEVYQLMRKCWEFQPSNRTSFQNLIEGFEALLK
PLK4, sequence (O00444 whole entry): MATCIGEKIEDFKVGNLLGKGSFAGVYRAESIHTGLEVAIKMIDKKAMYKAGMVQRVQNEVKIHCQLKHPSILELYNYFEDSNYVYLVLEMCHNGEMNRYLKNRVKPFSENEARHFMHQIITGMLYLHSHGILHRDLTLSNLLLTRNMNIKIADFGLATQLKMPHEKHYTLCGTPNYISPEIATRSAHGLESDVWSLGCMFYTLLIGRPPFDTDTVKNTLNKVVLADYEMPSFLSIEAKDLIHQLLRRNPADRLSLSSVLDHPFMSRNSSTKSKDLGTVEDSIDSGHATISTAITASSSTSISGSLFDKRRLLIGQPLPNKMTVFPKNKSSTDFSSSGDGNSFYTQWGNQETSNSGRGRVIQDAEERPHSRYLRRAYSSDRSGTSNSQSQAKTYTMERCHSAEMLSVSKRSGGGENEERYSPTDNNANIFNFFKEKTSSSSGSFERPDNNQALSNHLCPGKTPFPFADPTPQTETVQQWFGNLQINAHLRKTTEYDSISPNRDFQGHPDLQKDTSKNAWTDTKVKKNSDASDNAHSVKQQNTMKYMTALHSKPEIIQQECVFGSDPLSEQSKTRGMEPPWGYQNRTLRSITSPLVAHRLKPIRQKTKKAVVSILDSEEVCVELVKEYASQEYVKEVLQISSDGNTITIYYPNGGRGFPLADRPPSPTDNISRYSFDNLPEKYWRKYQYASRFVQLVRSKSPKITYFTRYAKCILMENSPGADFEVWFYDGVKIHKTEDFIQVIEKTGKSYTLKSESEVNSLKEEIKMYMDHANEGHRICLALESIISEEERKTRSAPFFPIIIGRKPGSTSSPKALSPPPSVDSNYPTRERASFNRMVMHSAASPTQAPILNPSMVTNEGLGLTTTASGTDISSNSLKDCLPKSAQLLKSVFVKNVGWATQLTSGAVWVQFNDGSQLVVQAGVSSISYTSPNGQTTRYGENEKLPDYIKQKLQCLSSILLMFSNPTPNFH
PHKG2, sequence (P15735 whole entry): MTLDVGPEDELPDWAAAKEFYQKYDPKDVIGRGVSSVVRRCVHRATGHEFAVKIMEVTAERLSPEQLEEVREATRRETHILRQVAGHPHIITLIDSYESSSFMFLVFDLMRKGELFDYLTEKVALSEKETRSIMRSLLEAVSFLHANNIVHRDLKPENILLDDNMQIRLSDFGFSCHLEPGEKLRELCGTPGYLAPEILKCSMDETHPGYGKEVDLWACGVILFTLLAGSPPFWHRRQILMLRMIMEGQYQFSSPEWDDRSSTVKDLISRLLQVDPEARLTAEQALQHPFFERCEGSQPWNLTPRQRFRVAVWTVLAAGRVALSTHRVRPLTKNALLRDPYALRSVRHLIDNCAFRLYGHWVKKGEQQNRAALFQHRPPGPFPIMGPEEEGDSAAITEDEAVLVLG
PIP5K1A, sequence (Q99755 whole entry): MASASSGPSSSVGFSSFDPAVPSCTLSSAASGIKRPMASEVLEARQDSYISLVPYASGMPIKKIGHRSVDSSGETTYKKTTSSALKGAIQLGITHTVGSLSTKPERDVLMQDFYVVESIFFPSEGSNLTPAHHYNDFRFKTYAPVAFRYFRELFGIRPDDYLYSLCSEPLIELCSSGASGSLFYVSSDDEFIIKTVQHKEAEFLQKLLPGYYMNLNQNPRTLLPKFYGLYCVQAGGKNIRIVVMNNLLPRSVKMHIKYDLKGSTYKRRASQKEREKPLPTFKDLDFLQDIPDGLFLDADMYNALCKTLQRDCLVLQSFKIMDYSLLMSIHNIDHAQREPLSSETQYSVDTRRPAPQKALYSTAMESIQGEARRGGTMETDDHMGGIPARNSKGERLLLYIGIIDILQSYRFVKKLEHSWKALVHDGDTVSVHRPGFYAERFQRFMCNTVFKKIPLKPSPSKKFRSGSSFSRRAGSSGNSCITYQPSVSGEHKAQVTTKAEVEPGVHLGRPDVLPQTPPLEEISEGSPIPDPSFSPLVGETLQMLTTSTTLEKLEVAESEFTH
PKN2, sequence (Q16513 whole entry): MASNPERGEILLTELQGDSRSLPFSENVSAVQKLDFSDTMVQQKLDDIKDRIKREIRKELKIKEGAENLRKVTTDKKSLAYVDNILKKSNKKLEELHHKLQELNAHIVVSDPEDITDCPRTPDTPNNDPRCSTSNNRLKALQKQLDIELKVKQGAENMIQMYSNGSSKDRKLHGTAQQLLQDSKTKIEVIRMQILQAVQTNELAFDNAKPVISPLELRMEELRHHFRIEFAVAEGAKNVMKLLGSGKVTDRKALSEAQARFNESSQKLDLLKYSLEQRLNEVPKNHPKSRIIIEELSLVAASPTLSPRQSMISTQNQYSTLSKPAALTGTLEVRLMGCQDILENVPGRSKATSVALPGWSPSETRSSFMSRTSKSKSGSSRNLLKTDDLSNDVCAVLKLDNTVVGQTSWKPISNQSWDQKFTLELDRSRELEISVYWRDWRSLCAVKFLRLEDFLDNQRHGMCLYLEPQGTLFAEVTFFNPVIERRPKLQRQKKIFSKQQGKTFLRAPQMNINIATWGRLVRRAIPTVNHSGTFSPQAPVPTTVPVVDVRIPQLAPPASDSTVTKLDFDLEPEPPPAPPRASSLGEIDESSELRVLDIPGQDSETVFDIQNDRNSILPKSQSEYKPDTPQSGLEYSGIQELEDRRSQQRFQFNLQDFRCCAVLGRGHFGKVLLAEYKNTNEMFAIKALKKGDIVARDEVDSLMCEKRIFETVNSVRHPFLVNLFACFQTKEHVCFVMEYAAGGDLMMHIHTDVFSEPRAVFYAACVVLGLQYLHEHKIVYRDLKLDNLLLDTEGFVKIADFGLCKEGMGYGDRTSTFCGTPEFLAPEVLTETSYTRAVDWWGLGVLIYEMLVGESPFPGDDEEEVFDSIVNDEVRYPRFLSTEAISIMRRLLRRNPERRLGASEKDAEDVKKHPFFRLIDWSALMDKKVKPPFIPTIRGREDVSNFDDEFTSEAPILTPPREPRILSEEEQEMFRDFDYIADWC
MAK, sequence (P20794 whole entry): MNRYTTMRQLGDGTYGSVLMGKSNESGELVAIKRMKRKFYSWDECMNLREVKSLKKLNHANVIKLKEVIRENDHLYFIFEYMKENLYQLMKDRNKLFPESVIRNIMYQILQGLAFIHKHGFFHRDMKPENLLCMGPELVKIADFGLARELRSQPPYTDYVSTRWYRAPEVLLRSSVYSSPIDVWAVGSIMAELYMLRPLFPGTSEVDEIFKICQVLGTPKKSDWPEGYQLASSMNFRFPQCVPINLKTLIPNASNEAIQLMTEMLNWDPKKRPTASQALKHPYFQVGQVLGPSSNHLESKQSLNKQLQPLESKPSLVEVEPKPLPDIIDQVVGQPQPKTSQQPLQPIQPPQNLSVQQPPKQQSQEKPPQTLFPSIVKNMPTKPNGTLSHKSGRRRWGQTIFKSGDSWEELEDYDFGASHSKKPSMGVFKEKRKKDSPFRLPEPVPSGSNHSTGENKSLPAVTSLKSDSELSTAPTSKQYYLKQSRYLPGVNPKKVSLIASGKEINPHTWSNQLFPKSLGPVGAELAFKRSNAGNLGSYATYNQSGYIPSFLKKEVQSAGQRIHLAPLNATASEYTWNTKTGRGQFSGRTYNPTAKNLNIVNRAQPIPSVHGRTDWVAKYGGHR

On to `C[C@@H]1CC(=O)NN=C1c1ccc(NN=C(C#N)C#N)cc1` [levosimendan], for which the remaining binding at 100 µM was 62% on DLK; 49% on PKN2 (setting [3]); 78% on TAK1; 45% on PLK4 (setting [3]); 97% on MYO3A; 100% at ERBB2. Moreover, the remaining binding at 100 µM at PIK3C2B is 90%; at MAK, 100%; on PIP5K1A (setting [3]), 6.2%; at CAMK2D, 87%; on AURKA, 73%; on HIPK3 it was 100%. For the same compound, the remaining binding at 100 µM amounted to 96% on PIK3CA; 100% on GRK4; 95% on TNNI3K; 100% at LKB1; 47% at PHKG2 (setting [3]); 65% on NIM1. For the same compound, the remaining binding at 100 µM in experiment [1] (setting [3]) amounted to 7.2%. For the same compound, the remaining binding at 10 µM on PKN2 (setting [2]) turned out to be 94%; at PLK4 (setting [2]) it was 100%; at PIP5K1A (setting [2]) it was 22%; at PHKG2 (setting [2]) it was 55%; in experiment [1] (setting [2]) it was 30%.
